Source: patent publication EP3831399A1, “ANTI-NOROVIRUS AGENT” (DENSO CORPORATION, priority 2018, dated 2020)
Entries after “also recorded” stand apart in the source; their conditions may differ.

Experiments:
Assay type in all cases: cell-based
feline calicivirus (FCV) = assay: Virucidal effect in presence of organic material (BSA); details: 1,000 µg/ml
Protocol: • Virus: using feline calicivirus (FCV) as a replacement for norovirus • Used medicine and concentration: 1,000 µg/ml of sodium hypochlorite or coccomyxa sp. KJ strain MGDG preparation • Organic material: using BSA (albumin) 5%
• (1) Feline calicivirus (FCV) was prepared in 2×10^5 PFU/ml. • (2) An MGDG preparation or sodium hypochlorite is prepared at a concentration four times the final assay concentration ([…]). • (3) Bovine serum albumin (BSA) is prepared as an organic material at a concentration four times the final concentration (5%). • (4) Virus fluid: the MGDG preparation or sodium hypochlorite and BSA are mixed at a ratio of 2 : 1 : 1. A sample prepared by adding PBS instead of the MGDG preparation or sodium hypochlorite was used as a control. • (5) After being left at room temperature for 1 minute, 10 minutes, and 60 minutes, 100-fold dilution with PBS is performed. The CRFK cells cultured in a monolayer fashion are added in an amount of 100 µl/culture dish to a 35 mm culture dish, and an infection treatment is performed at room temperature for 1 hour. • (6) A 1% SeaPlaque Agarose-added MEM culture medium is overlaid. • (7) After 2 days, the appeared plaque is immobilized and stained with a crystal violet solution. • (8) The number of plaques is counted under a microscope.

Influenza A virus (IFV) = assay: Virucidal activity of each MGDG fraction, influenza virus; details: 50 µg/ml, 37°C, 60 minutes; MDCK cell
[1] = system: Herpes simplex virus type 2 (HSV-2); assay: Virucidal activity of each MGDG fraction, herpes simplex virus type 2; details: 50 µg/ml, 37°C, 60 minutes, Vero cell
Protocol: (1) A coccomyxa sp. KJ strain-derived MGDG preparation was subjected to HPLC, and each peak was separated, thereby obtaining five types of MGDG refined products (MGDG1, MGDG2, MGDG3, MGDG4, and MGDG5). Furthermore, the MGDG preparation before separation (containing MGDG1 to MGDG5) was prepared as a mix product. (2) Each sample was mixed with respect to each virus fluid (2×10^5 PFU/ml) so that the final concentration became 50 µg/ml, and the resultant product was left to stand still at 37°C for 60 minutes.
(3) The mixed liquid of (2) is diluted in the MEM culture medium without foetal bovine serum, a culture medium for plaque assay is then overlaid, and culturing is performed at 37°C for 2 to 3 days. (4) After checking appearance of plaques, the cells were immobilized and stained with a neutral red solution, and the number of plaques was measured under a microscope. The virus survival rate of each sample was calculated based on the appearance number of virus appearing in the case of not adding the sample (100%). The virucidal performance of each sample was evaluated from the virus survival rate.

Row | Compound | inactivation effect in the presence of the organic material, change versus its absence (feline calicivirus (FCV); 5% BSA) | rate of virus inactivation (feline calicivirus (FCV); organic material (BSA) did not exist, one minute) [%] | virucidal (inactivation) activity (virus survival rate) (Influenza A virus (IFV)) | virucidal (inactivation) activity (virus survival rate) [1] | virucidal (inactivation) activity (virus survival rate) ([1]; listed as fifth peak of the KJ strain MGDG preparation)
1 | OCl [sodium hypochlorite] | significantly reduced | 100 |  |  | 
2 | monogalactosyldiacylglycerol in which a constituent fatty acid is C18:3 and C18:2 [MGDG5] |  |  | significant inactivation effect; also recorded: high virucidal activity | significant inactivation effect | high virucidal activity
